Results from patent US11292792B2, “Tricyclic CRBN ligands and uses thereof” (Kymera Therapeutics, Inc., priority 2018, dated 2022).

molecular target: His-tagged CRBN-DDB1 complex (Homo sapiens (Human), UniProt Q96SW2); test: Time-resolved fluorescence resonance energy transfer (TR-FRET) assay, displacement of Cy5-labeled thalidomide; format: binding; details: not given
Description: Equal volumes of His-tagged CRBN-DDB1 complex (56 nM) was mixed with Eu-cryptate labeled Anti-6HIS-monoclonal antibody (50× dilution from the commercial stock solution, Vender: Cisbio, Cat. #61HI2KLA) in a final buffer containing 20 mM HEPES pH 7.0, 150 mM NaCl, 0.005% Tween-20. […] The mixture were incubated at room temperature for 1 hour. FRET signals were measured on an EnVision plate reader (Perkin Elmer) by exciting at 340 nm and recording emission at both 615 nm as no FRET control and 665 nm as the FRET signals with a 60 microsecond delay. FRET efficiency was calculated as the ratio of fluorescent signals at […]. Quantitative loss of FRET efficiency as a function of compound concentrations was fitted by a four-parameter Logistic Function using GraphPad Prism 7.0 and the IC50 values were reported for each compound.
The compound numbers correspond to the compound numbers in Table 1.

Chain of His-tagged CRBN-DDB1 complex (Q96SW2 whole entry): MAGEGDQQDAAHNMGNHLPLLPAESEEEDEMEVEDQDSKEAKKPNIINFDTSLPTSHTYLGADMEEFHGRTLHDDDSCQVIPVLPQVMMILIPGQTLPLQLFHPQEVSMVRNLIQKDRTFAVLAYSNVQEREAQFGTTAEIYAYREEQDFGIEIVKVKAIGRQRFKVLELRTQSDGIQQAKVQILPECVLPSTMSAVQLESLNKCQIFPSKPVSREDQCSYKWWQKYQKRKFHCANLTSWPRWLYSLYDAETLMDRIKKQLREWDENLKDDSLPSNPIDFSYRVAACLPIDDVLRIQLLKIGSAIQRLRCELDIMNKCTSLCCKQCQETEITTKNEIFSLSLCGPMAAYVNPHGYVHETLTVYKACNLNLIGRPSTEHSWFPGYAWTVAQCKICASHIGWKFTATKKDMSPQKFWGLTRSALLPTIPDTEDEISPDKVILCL
Chain of His-tagged CRBN-DDB1 complex (Q16531 whole entry partner): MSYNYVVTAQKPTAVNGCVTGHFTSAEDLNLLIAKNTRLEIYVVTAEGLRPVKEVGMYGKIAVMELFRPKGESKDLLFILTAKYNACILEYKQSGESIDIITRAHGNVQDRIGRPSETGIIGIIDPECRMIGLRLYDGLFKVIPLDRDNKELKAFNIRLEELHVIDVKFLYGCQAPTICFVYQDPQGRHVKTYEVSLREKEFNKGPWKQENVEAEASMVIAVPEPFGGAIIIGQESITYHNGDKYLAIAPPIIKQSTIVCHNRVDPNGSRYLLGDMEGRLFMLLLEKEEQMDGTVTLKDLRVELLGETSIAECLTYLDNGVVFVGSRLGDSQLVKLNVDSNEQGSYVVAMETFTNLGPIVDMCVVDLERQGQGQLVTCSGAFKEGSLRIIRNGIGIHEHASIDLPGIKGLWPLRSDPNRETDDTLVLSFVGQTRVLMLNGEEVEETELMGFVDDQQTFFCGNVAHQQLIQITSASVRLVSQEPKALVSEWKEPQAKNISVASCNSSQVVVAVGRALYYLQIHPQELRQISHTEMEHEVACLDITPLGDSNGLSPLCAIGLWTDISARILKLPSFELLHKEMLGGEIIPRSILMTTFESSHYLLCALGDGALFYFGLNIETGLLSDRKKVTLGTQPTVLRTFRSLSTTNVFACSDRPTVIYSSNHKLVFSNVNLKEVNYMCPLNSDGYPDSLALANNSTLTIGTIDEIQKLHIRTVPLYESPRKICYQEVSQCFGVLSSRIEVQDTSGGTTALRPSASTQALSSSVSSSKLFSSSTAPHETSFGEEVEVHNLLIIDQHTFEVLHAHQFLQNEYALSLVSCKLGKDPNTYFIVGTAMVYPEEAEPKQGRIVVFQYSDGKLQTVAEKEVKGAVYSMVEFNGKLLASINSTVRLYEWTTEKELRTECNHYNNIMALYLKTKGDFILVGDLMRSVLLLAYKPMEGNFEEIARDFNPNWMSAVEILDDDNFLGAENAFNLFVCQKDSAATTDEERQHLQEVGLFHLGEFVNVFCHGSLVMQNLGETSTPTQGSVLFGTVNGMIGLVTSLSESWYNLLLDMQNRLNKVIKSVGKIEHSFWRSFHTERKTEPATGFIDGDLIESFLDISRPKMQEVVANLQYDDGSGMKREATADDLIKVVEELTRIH

| Compound | IC50 [µM] |
| --- | --- |
| O=C1CCC(N2C(=O)CN=C(c3ccccc3)c3ccccc32)C(=O)N1 (stereo not drawn) [I-41] | 30 to 100 |

same assay, conditions: read-out: CRBN HTRF IC50

| Compound | IC50 [µM] |
| --- | --- |
| O=C1CCC(n2c3ccccc3c3ccccc32)C(=O)N1 (stereo not drawn) [I-1, 3-(9H-Carbazol-9-yl)piperidine-2,6-dione] | 10 to 30 |
| O=C1CCC(n2c3ccccc3c3cccnc32)C(=O)N1 (stereo not drawn) [I-2, 3-(9H-pyrido[2,3-b]indol-9-yl)piperidine-2,6-dione] | < 10 |
| O=C1CCC(n2c3ncccc3c3cccnc32)C(=O)N1 (stereo not drawn) [I-3, 3-(9H-pyrrolo[2,3-b:5,4-b′]dipyridin-9-yl)piperidine-2,6-dione] | 30 to 100 |
| Nc1ccc2c(c1)c1cccnc1n2C1CCC(=O)NC1=O (stereo not drawn) [I-5, 3-(6-Amino-9H-pyrido[2,3-b]indol-9-yl)piperidine-2,6-dione] | < 10 |
| CC(=O)Nc1ccc2c(c1)c1cccnc1n2C1CCC(=O)NC1=O (stereo not drawn) [I-8, N-(9-(2,6-Dioxopiperidin-3-yl)-9H-pyrido[2,3-b]indol-6-yl)acetamide] | < 10 |
| CCNC(=O)Nc1ccc2c(c1)c1cccnc1n2C1CCC(=O)NC1=O (stereo not drawn) [I-9, 1-(9-(2,6-Dioxopiperidin-3-yl)-9H-pyrido[2,3-b]indol-6-yl)-3-ethylurea] | < 10 |
| O=C1CCC(n2c3ccc(Br)cc3c3cccnc32)C(=O)N1 (stereo not drawn) [I-26, 3-(6-Bromo-9H-pyrido[2,3-b]indol-9-yl)piperidine-2,6-dione] | < 10 |
| CNc1ccc2c(c1)c1cccnc1n2C1CCC(=O)NC1=O (stereo not drawn) [I-27, 3-(6-(methylamino)-9H-pyrido[2,3-b]indol-9-yl)piperidine-2,6-dione] | < 10 |
| CN(C)c1ccc2c(c1)c1cccnc1n2C1CCC(=O)NC1=O (stereo not drawn) [I-28, 3-(6-(Dimethylamino)-9H-pyrido[2,3-b]indol-9-yl)piperidine-2,6-dione] | < 10 |
| CCOC(=O)Nc1ccc2c(c1)c1cccnc1n2C1CCC(=O)NC1=O (stereo not drawn) [I-29, ethyl (9-(2,6-dioxopiperidin-3-yl)-9H-pyrido[2,3-b]indol-6-yl)carbamate] | 10 to 30 |
| O=C1CCC(n2c3cccc(Br)c3c3cccnc32)C(=O)N1 (stereo not drawn) [I-30] | < 10 |
| O=C1CCC(n2c3ccccc3c3c(Br)ccnc32)C(=O)N1 (stereo not drawn) [I-31] | < 10 |
| N#Cc1ccc2c(c1)c1cccnc1n2C1CCC(=O)NC1=O (stereo not drawn) [I-32] | 10 to 30 |
| CC(C)(C)OC(=O)NCCOCC#Cc1ccc2c(c1)c1cccnc1n2C1CCC(=O)NC1=O (stereo not drawn) [I-33, tert-Butyl (2-((3-(9-(2,6-dioxopiperidin-3-yl)-9H-pyrido[2,3-b]indol-6-yl)prop-2-yn-1-yl)oxy)ethyl)carbamate] | < 10 |
| CC(C)(C)OC(=O)NCCOCCCc1ccc2c(c1)c1cccnc1n2C1CCC(=O)NC1=O (stereo not drawn) [I-34, tert-butyl (2-(3-(9-(2,6-dioxopiperidin-3-yl)-9H-pyrido[2,3-b]indol-6-yl)propoxy)ethyl)carbamate] | < 10 |
| CC(C)(C)OC(=O)NCCOCCOCCNc1ccc2c(c1)c1cccnc1n2C1CCC(=O)NC1=O (stereo not drawn) [I-35, tert-butyl (2-(2-(2-((9-(2,6-dioxopiperidin-3-yl)-9H-pyrido[2,3-b]indol-6-yl)amino)ethoxy)ethoxy)ethyl)carbamate] | < 10 |
| CC(C)(C)OC(=O)NCCOCCOCC(=O)NCc1ccc2c(c1)c1cccnc1n2C1CCC(=O)NC1=O (stereo not drawn) [I-36, tert-butyl (2-(2-(2-(((9-(2,6-dioxopiperidin-3-yl)-9H-pyrido[2,3-b]indol-6-yl)methyl)amino)-2-oxoethoxy)ethoxy)ethyl)carbamate] | < 10 |
| CC(C)(C)OC(=O)NCCOCCNC(=O)NCc1ccc2c(c1)c1cccnc1n2C1CCC(=O)NC1=O (stereo not drawn) [I-37, tert-butyl (2-(2-(3-((9-(2,6-dioxopiperidin-3-yl)-9H-pyrido[2,3-b]indol-6-yl)methyl)ureido)ethoxy)ethyl)carbamate] | 10 to 30 |
| CC(C)(C)OC(=O)NCCOCCOC(=O)NCc1ccc2c(c1)c1cccnc1n2C1CCC(=O)NC1=O (stereo not drawn) [I-38, 2-(2-((tert-butoxycarbonyl)amino)ethoxy)ethyl ((9-(2,6-dioxopiperidin-3-yl)-9H-pyrido[2,3-b]indol-6-yl)methyl)carbamate] | < 10 |

| Compound | IC50 [µM] |
| --- | --- |
| Nc1cnc2c(c1)c1ccccc1n2C1CCC(=O)NC1=O (stereo not drawn) [I-39, 3-(3-amino-9H-pyrido[2,3-b]indol-9-yl)piperidine-2,6-dione] | < 10 |
| CC(C)(C)OC(=O)N1CCc2c(c3cccnc3n2C2CCC(=O)NC2=O)C1 (stereo not drawn) [I-40, tert-butyl 9-(2,6-dioxopiperidin-3-yl)-7,8-dihydro-5H-pyrrolo[2,3-b:4,5-c′]dipyridine-6(9H)-carboxylate] | 10 to 30 |
| O=C1CCC(n2c3ccccc3c3ccncc32)C(=O)N1 (stereo not drawn) [I-42] | > 100 |
| O=C1CCC(n2c3ccccc3c3cnccc32)C(=O)N1 (stereo not drawn) [I-43] | 30 to 100 |
| CN(CCCOCCCc1ccc2c(c1)c1cccnc1n2C1CCC(=O)NC1=O)C(=O)OC(C)(C)C (stereo not drawn) [I-44] | < 10 |
| CN(CCCOCC#Cc1ccc2c(c1)c1cccnc1n2C1CCC(=O)NC1=O)C(=O)OC(C)(C)C (stereo not drawn) [I-45] | 10 to 30 |
| O=C1CCC(n2c3ccc(CCCOCCOCCO)cc3c3cccnc32)C(=O)N1 (stereo not drawn) [I-46] | < 10 |
| O=C1CCC(n2c3ccc(C#CCOCCOCCOCc4ccccc4)cc3c3cccnc32)C(=O)N1 (stereo not drawn) [I-47] | < 10 |
| O=C1CCC(n2c3ccccc3c3c(CCCOCCOCCO)ccnc32)C(=O)N1 (stereo not drawn) [I-48] | < 10 |
| O=C1CCC(n2c3ccccc3c3c(C#CCOCCOCCOCc4ccccc4)ccnc32)C(=O)N1 (stereo not drawn) [I-49] | < 10 |
| O=C1CCC(n2c3ccc(NCCOCCOCCOCc4ccccc4)cc3c3cccnc32)C(=O)N1 (stereo not drawn) [I-50] | < 10 |
| O=C1CCC(n2c3cccc(CCCOCCOCCO)c3c3cccnc32)C(=O)N1 (stereo not drawn) [I-51] | < 10 |
| O=C1CCC(n2c3cccc(C#CCOCCOCCOCc4ccccc4)c3c3cccnc32)C(=O)N1 (stereo not drawn) [I-52] | < 10 |
| O=C1CCC(n2c3cc(CCCOCCOCCO)ccc3c3cccnc32)C(=O)N1 (stereo not drawn) [I-53] | 10 to 30 |
| O=C1CCC(n2c3ccccc3c3cc(CCCOCCOCCO)cnc32)C(=O)N1 (stereo not drawn) [I-54, 3-(3-(3-(2-(2-hydroxyethoxy)ethoxy)propyl)-9H-pyrido[2,3-b]indol-9-yl)piperidine-2,6-dione] | 10 to 30 |
| O=C1CCC(n2c3c(c4cccnc42)CN(Cc2ccccc2)CC3)C(=O)N1 (stereo not drawn) [I-55, 3-(6-benzyl-7,8-dihydro-5H-pyrrolo[2,3-b:4,5-c′]dipyridin-9(6H)-yl)piperidine-2,6-dione] | 30 to 100 |
| O=C1CCC(n2c3ccncc3c3cccnc32)C(=O)N1 (stereo not drawn) [I-56, 3-(9H-pyrrolo[2,3-b:4,5-c′]dipyridin-9-yl)piperidine-2,6-dione] | 10 to 30 |
| CC(C)(C)OC(=O)NCCOCCOCCCc1ccnc2c1c1ccccc1n2C1CCC(=O)NC1=O (stereo not drawn) [I-57] | < 10 |
| CC(C)(C)OC(=O)NCCOCCOCCCc1ccc2c3cccnc3n(C3CCC(=O)NC3=O)c2c1 (stereo not drawn) [I-58] | 10 to 30 |

| Compound | IC50 [µM] |
| --- | --- |
| NCCOCCOCCCc1cnc2c(c1)c1ccccc1n2C1CCC(=O)NC1=O (stereo not drawn) [I-59, 3-(3-(3-(2-(2-aminoethoxy)ethoxy)propyl)-9H-pyrido[2,3-b]indol-9-yl)piperidine-2,6-dione] | < 10 |
| CC(C)(C)OC(=O)NCCOCCOCCCc1cccc2c1c1cccnc1n2C1CCC(=O)NC1=O (stereo not drawn) [I-60] | < 10 |
| CC(C)(C)OC(=O)NCCOCCOCC#Cc1cccc2c1c1cccnc1n2C1CCC(=O)NC1=O (stereo not drawn) [I-61] | < 10 |
| CC(C)(C)OC(=O)NCCOCCOCCCc1ccc2c(c1)c1cccnc1n2C1CCC(=O)NC1=O (stereo not drawn) [I-62] | < 10 |
| CC(C)(C)OC(=O)NCCOCCOCC#Cc1ccc2c(c1)c1cccnc1n2C1CCC(=O)NC1=O (stereo not drawn) [I-63] | < 10 |
| CC(C)(C)OC(=O)N1CCN(CCc2ccc3c(c2)c2cccnc2n3C2CCC(=O)NC2=O)CC1 (stereo not drawn) [I-64, tert-butyl 4-(2-(9-(2,6-dioxopiperidin-3-yl)-9H-pyrido[2,3-b]indol-6-yl)ethyl)piperazine-1-carboxylate] | < 10 |
| COc1nccc2c3ccccc3n(C3CCC(=O)NC3=O)c12 (stereo not drawn) [I-65] | 30 to 100 |
| O=C1CCC(n2c3ccccc3c3scnc32)C(=O)N1 (stereo not drawn) [I-66] | 10 to 30 |
| O=C1CCC(n2c3ccccc3c3cncnc32)C(=O)N1 (stereo not drawn) [I-67] | 10 to 30 |
| O=C1CCC(n2c3c(c4cccnc42)CN(C(=O)CCCCCCCCO)CC3)C(=O)N1 (stereo not drawn) [I-68, 3-(6-(9-hydroxynonanoyl)-5,6,7,8-tetrahydro-9H-pyrrolo[2,3-b:4,5-c′]dipyridin-9-yl)piperidine-2,6-dione] | 30 to 100 |
| O=C1CCC(n2c3cnccc3c3cccnc32)C(=O)N1 (stereo not drawn) [I-69, 3-(9H-pyrrolo[2,3-b:5,4-c′]dipyridin-9-yl)piperidine-2,6-dione] | > 100 |
| O=C1CCC(n2c3c(c4cccnc42)CCCC3)C(=O)N1 (stereo not drawn) [I-70] | 10 to 30 |
| CC(C)(C)OC(=O)NC1CCN(CCc2ccc3c(c2)c2cccnc2n3C2CCC(=O)NC2=O)CC1 (stereo not drawn) [I-71, tert-butyl (1-(2-(9-(2,6-dioxopiperidin-3-yl)-9H-pyrido[2,3-b]indol-6-yl)ethyl)piperidin-4-yl)carbamate] | < 10 |
| O=C1CCC(n2c3ccccc3c3ccsc32)C(=O)N1 (stereo not drawn) [I-72] | < 10 |
| CC(C)(C)OC(=O)NCCOCCOCCCc1ccc2c3ccccc3n(C3CCC(=O)NC3=O)c2n1 (stereo not drawn) [I-73] | 10 to 30 |
| CC(C)(C)OC(=O)NCCOCCOCC#Cc1ccc2c3ccccc3n(C3CCC(=O)NC3=O)c2n1 (stereo not drawn) [I-74] | 10 to 30 |
| O=C1CCC(n2c3ccccc3c3ccc(Cl)nc32)C(=O)N1 (stereo not drawn) [I-75] | < 10 |
| N#Cc1ccnc2c1c1ccccc1n2C1CCC(=O)NC1=O (stereo not drawn) [I-76, 9-(2,6-dioxopiperidin-3-yl)-9H-pyrido[2,3-b]indole-4-carbonitrile] | < 10 |
